Assay results: patent US8653041B2, “Antibacterial aminoglycoside analogs” (Achaogen, Inc., priority 2010, dated 2014)
Values after ≈ are worked out from the molar mass of the structure shown. Read-outs that look alike come from different tables or passages of the source.

Tests used:
Acinetobacter baumannii = assay: MIC, CLSI broth microdilution, Acinetobacter baumannii panel; type: cell-based; conditions: Acinetobacter baumannii, read-out: MIC
Procedure: (§1) Minimum inhibitory concentrations (MIC) were determined by reference Clinical and Laboratory Standards Institute (CLSI) broth microdilution methods per M7-A7 [2006]. Quality control ranges utilizing E. coli ATCC 25922, P. aeruginosa ATCC 27853 and S. aureus ATCC 29213, and interpretive criteria for comparator agents were as published in CLSI M100-S17 [2007]. Briefly, serial two-fold dilutions of the test compounds were prepared at 2× concentration in Mueller Hinton Broth. The compound dilutions were mixed in 96-well assay plates in a 1:1 ratio with bacterial inoculum. The inoculum was prepared by suspension of a colony from an agar plate that was prepared the previous day. Bacteria were suspended in sterile saline and added to each assay plate to obtain a final concentration of 5×10^5 CFU/mL. The plates were incubated at 35 C for 20 hours in ambient air.
The MIC panel presented in Table 2 contains 29 isolates of Acinetobacter baumannii: strains 1-24 are clinical isolates from around the world collected between 2004-2007 which contain representative resistance mechanisms commonly found in Acinetobacter baumannii, such as AAC(3)-I and II, AAC(6′)-I, ANT(2″)-I, APH(3′)-VI, and perm/efflux; strains 25-29 are susceptible.

[1] = 14-day rat toxicology (nephrotoxicity), once-daily subcutaneous injection
Procedure: The study design utilized once-daily subcutaneous injection administration to the rat for 14 days and assessment of reversibility of any changes following a 28-day recovery period.
The dose volume administered to each animal was 1 mL/kg.

Pseudomonas aeruginosa = assay: MIC, CLSI broth microdilution, Pseudomonas aeruginosa panel; type: cell-based; conditions: Pseudomonas aeruginosa, read-out: MIC
Procedure: as §1
The MIC panel presented in Table 1 contains 27 isolates of Pseudomonas aeruginosa: strains 1-22 are clinical isolates from around the world collected between 2004-2007 which contain representative resistance mechanisms commonly found in Pseudomonas, such as the AAC(6′)-I, AAC(6′)-II, APH(3′)-IIb, ANT(2″)-I, and perm/efflux; strains 23-27 are susceptible.

NC[C@@H]1O[C@H](O[C@H]2[C@@H](O)[C@H](O[C@@H]3[C@@H](O)[C@H](NC(=O)[C@@H](O)CN)C[C@H](N)[C@H]3O[C@H]3O[C@H](CNCCO)[C@@H](O)C[C@H]3N)O[C@@H]2CO)[C@H](N)[C@@H](O)[C@@H]1O [Compound 20]
MIC (Acinetobacter baumannii; A. baumannii clinical strain 1 (resistant clinical isolate)): 1 to 8 µg/mL (≈ 1.37 to 11 µM)
MIC (Acinetobacter baumannii; A. baumannii clinical strain 2 (resistant clinical isolate)): 1 to 8 µg/mL (≈ 1.37 to 11 µM)
MIC (Acinetobacter baumannii; A. baumannii clinical strain 3 (resistant clinical isolate)): ≤ 1 µg/mL
MIC (Acinetobacter baumannii; A. baumannii clinical strain 4 (resistant clinical isolate)): 16 to 32 µg/mL (≈ 21.9 to 43.8 µM)
MIC (Acinetobacter baumannii; A. baumannii clinical strain 5 (resistant clinical isolate)): ≤ 1 µg/mL
MIC (Acinetobacter baumannii; A. baumannii clinical strain 6 (resistant clinical isolate)): 1 to 8 µg/mL (≈ 1.37 to 11 µM)
MIC (Acinetobacter baumannii; A. baumannii clinical strain 7 (resistant clinical isolate)): ≤ 1 µg/mL
MIC (Acinetobacter baumannii; A. baumannii clinical strain 8 (resistant clinical isolate)): ≤ 1 µg/mL
MIC (Acinetobacter baumannii; A. baumannii clinical strain 9 (resistant clinical isolate)): ≤ 1 µg/mL
MIC (Acinetobacter baumannii; A. baumannii clinical strain 10 (resistant clinical isolate)): 1 to 8 µg/mL (≈ 1.37 to 11 µM)
MIC (Acinetobacter baumannii; A. baumannii clinical strain 11 (resistant clinical isolate)): ≤ 1 µg/mL
MIC (Acinetobacter baumannii; A. baumannii clinical strain 12 (resistant clinical isolate)): ≤ 1 µg/mL
MIC (Acinetobacter baumannii; A. baumannii clinical strain 13 (resistant clinical isolate)): ≤ 1 µg/mL
MIC (Acinetobacter baumannii; A. baumannii clinical strain 14 (resistant clinical isolate)): ≤ 1 µg/mL
MIC (Acinetobacter baumannii; A. baumannii clinical strain 15 (resistant clinical isolate)): ≤ 1 µg/mL
MIC (Acinetobacter baumannii; A. baumannii clinical strain 16 (resistant clinical isolate)): 1 to 8 µg/mL (≈ 1.37 to 11 µM)
MIC (Acinetobacter baumannii; A. baumannii clinical strain 17 (resistant clinical isolate)): 1 to 8 µg/mL (≈ 1.37 to 11 µM)
MIC (Acinetobacter baumannii; A. baumannii clinical strain 18 (resistant clinical isolate)): 1 to 8 µg/mL (≈ 1.37 to 11 µM)
MIC (Acinetobacter baumannii; A. baumannii clinical strain 19 (resistant clinical isolate)): 1 to 8 µg/mL (≈ 1.37 to 11 µM)
MIC (Acinetobacter baumannii; A. baumannii clinical strain 20 (resistant clinical isolate)): 1 to 8 µg/mL (≈ 1.37 to 11 µM)
MIC (Acinetobacter baumannii; A. baumannii clinical strain 21 (resistant clinical isolate)): ≤ 1 µg/mL
MIC (Acinetobacter baumannii; A. baumannii clinical strain 22 (resistant clinical isolate)): 8 to 16 µg/mL (≈ 11 to 21.9 µM)
MIC (Acinetobacter baumannii; A. baumannii clinical strain 23 (resistant clinical isolate)): ≤ 1 µg/mL
MIC (Acinetobacter baumannii; A. baumannii clinical strain 24 (resistant clinical isolate)): 1 to 8 µg/mL (≈ 1.37 to 11 µM)
MIC (Acinetobacter baumannii; A. baumannii strain 25 (susceptible)): ≤ 1 µg/mL
MIC (Acinetobacter baumannii; A. baumannii strain 26 (susceptible)): ≤ 1 µg/mL
MIC (Acinetobacter baumannii; A. baumannii strain 27 (susceptible)): ≤ 1 µg/mL
MIC (Acinetobacter baumannii; A. baumannii strain 28 (susceptible)): ≤ 1 µg/mL
MIC (Acinetobacter baumannii; A. baumannii strain 29 (susceptible)): ≤ 1 µg/mL
mortality ([1]; 10, 30 or 100 mg/kg/day subcutaneous, once daily, 14 days, Sprague-Dawley rat): did not result in mortality at any dose
macroscopic or microscopic changes to the kidneys ([1]; rat, in vivo): nor any significant macroscopic or microscopic changes to the kidneys
MIC (Pseudomonas aeruginosa; P. aeruginosa clinical strain 1 (resistant clinical isolate)): ≤ 1 µg/mL
MIC (Pseudomonas aeruginosa; P. aeruginosa clinical strain 2 (resistant clinical isolate)): ≤ 1 µg/mL
MIC (Pseudomonas aeruginosa; P. aeruginosa clinical strain 3 (resistant clinical isolate)): 1 to 8 µg/mL (≈ 1.37 to 11 µM)
MIC (Pseudomonas aeruginosa; P. aeruginosa clinical strain 4 (resistant clinical isolate)): 1 to 8 µg/mL (≈ 1.37 to 11 µM)
MIC (Pseudomonas aeruginosa; P. aeruginosa clinical strain 5 (resistant clinical isolate)): 1 to 8 µg/mL (≈ 1.37 to 11 µM)
MIC (Pseudomonas aeruginosa; P. aeruginosa clinical strain 6 (resistant clinical isolate)): 1 to 8 µg/mL (≈ 1.37 to 11 µM)
MIC (Pseudomonas aeruginosa; P. aeruginosa clinical strain 7 (resistant clinical isolate)): ≤ 1 µg/mL
MIC (Pseudomonas aeruginosa; P. aeruginosa clinical strain 8 (resistant clinical isolate)): 1 to 8 µg/mL (≈ 1.37 to 11 µM)
MIC (Pseudomonas aeruginosa; P. aeruginosa clinical strain 9 (resistant clinical isolate)): ≤ 1 µg/mL
MIC (Pseudomonas aeruginosa; P. aeruginosa clinical strain 10 (resistant clinical isolate)): 1 to 8 µg/mL (≈ 1.37 to 11 µM)
MIC (Pseudomonas aeruginosa; P. aeruginosa clinical strain 11 (resistant clinical isolate)): ≤ 1 µg/mL
MIC (Pseudomonas aeruginosa; P. aeruginosa clinical strain 12 (resistant clinical isolate)): ≤ 1 µg/mL
MIC (Pseudomonas aeruginosa; P. aeruginosa clinical strain 13 (resistant clinical isolate)): 8 to 16 µg/mL (≈ 11 to 21.9 µM)
MIC (Pseudomonas aeruginosa; P. aeruginosa clinical strain 14 (resistant clinical isolate)): ≤ 1 µg/mL
MIC (Pseudomonas aeruginosa; P. aeruginosa clinical strain 15 (resistant clinical isolate)): 1 to 8 µg/mL (≈ 1.37 to 11 µM)
MIC (Pseudomonas aeruginosa; P. aeruginosa clinical strain 16 (resistant clinical isolate)): ≤ 1 µg/mL
MIC (Pseudomonas aeruginosa; P. aeruginosa clinical strain 17 (resistant clinical isolate)): 1 to 8 µg/mL (≈ 1.37 to 11 µM)
MIC (Pseudomonas aeruginosa; P. aeruginosa clinical strain 18 (resistant clinical isolate)): 1 to 8 µg/mL (≈ 1.37 to 11 µM)
MIC (Pseudomonas aeruginosa; P. aeruginosa clinical strain 19 (resistant clinical isolate)): 16 to 32 µg/mL (≈ 21.9 to 43.8 µM)
MIC (Pseudomonas aeruginosa; P. aeruginosa clinical strain 20 (resistant clinical isolate)): 16 to 32 µg/mL (≈ 21.9 to 43.8 µM)
MIC (Pseudomonas aeruginosa; P. aeruginosa clinical strain 21 (resistant clinical isolate)): 1 to 8 µg/mL (≈ 1.37 to 11 µM)
MIC (Pseudomonas aeruginosa; P. aeruginosa clinical strain 22 (resistant clinical isolate)): 1 to 8 µg/mL (≈ 1.37 to 11 µM)
MIC (Pseudomonas aeruginosa; P. aeruginosa strain 23 (susceptible)): ≤ 1 µg/mL
MIC (Pseudomonas aeruginosa; P. aeruginosa strain 24 (susceptible)): ≤ 1 µg/mL
MIC (Pseudomonas aeruginosa; P. aeruginosa strain 25 (susceptible)): ≤ 1 µg/mL
MIC (Pseudomonas aeruginosa; P. aeruginosa strain 26 (susceptible)): ≤ 1 µg/mL
MIC (Pseudomonas aeruginosa; P. aeruginosa strain 27 (susceptible)): ≤ 1 µg/mL
